Laboratory results reported in patent US20240390353A1, “METHOD OF TREATMENT WITH TRADIPITANT” (Vanda Pharmaceuticals Inc., priority 2018, published 2024).
“Also recorded” adds a separate entry of the source.

System: otherwise healthy adults reporting regular illicit opioid misuse
Assay: Double-blind within-subject crossover inpatient study: subject-rated outcomes of intranasal oxycodone during tradipitant vs placebo maintenance (sample sessions)
Assay type: in vivo, human
Description: A double-blind, inpatient, approximately 6 week study employing a within-subject crossover design examines the effects of maintenance with tradipitant as compared to placebo on response to oxycodone. Study subjects include otherwise healthy adults reporting regular illicit opioid misuse, and history of intranasal opioid use without physical dependence.
Subjects are administered placebo or tradipitant (85 mg p.o., bid) on study days 3-17 with a washout period on days 18-23, followed by administration of placebo or tradipitant (85 mg p.o., bid) on study days 24-39. In the study, tradipitant/placebo administration is counterbalanced across subjects. On study days 3, […], 24, and 39, subjects participate in challenge sessions (day 1 and steady state) in which they receive 0, 5, 10, or 20 mg intranasal (IN) oxycodone at 1 hr. intervals, after which effect of tradipitant on analgesia in humans is evaluated. On study days 2, 8, 11, 15, 29, 32, and 36, subjects participate in sample sessions in which subjects are administered 0, 15, or 30 mg IN oxycodone, after which effect of tradipitant on subject-rated outcomes is evaluated. Such subject-rated outcomes include responses to questions including “how much do you like the drug,” “does the drug have any good effects,” “do you feel any drug effect,” and “how much do you desire opiates right now?” Further, on study days 9, 12, 16, 30, 33, and 37, subjects participate in choice sessions, in which effect of tradipitant on oxycodone self-administration is evaluated.

[1] = 0, 15 or 30 mg IN oxycodone, difference from 0 mg
[2] = tradipitant 85 mg p.o. bid maintenance, at some opioid drug doses, e.g. 15 mg IN oxycodone, FIGS. 1-3

SMILES	effect of oxycodone dose on trough scores for desire for opioids (0, 15 or 30 mg IN oxycodone)	peak ratings of good effects [1]	peak ratings of liking for the drug [1]	peak ratings of overall drug effect [1]	desire for opioids (cravings), trough scores ("how much do you desire opiates right now?") (tradipitant 85 mg p.o. bid maintenance compared to placebo maintenance, 0, 15 or 30 mg IN oxycodone, FIG. 4)	perception of how good the effects of the drug were [2]	perception of how much of a drug effect was felt [2]	perception of how much the opioid drug was liked [2]	pleasurable and drug seeking sensations (tradipitant maintenance, at some doses)
COc1ccc2c3c1O[C@H]1C(=O)CC[C@@]4(O)[C@@H](C2)N(C)CC[C@]314 [Oxycodone, oxycodone, reference compound]	no significant effect	significant and dose-dependent increases	significant and dose-dependent increases	significant and dose-dependent increases	–	–	–	–	–
O=C(c1ccccc1Cl)c1cccnc1-c1nnn(Cc2cc(C(F)(F)F)cc(C(F)(F)F)c2)c1-c1ccncc1 [tradipitant]	–	–	–	–	diminished; also recorded: reduces	decreases	decreases	decreases	decreases
